According to paper PMC9747611 (Hypertension Research, 2022):
Entries after “also recorded” stand apart in the source; their conditions may differ. Where two headings read alike, the source gives them in different places.

Columns and labels:
Type in all cases: in vivo, human
[1] = Plasma electrolytes and renal function (pharmacodynamics)
Procedure: Plasma PD measures included concentrations of aldosterone, 18-hydroxycorticosterone, corticosterone, 11-deoxycorticosterone, cortisol (free and total), 11-deoxycortisol, ACTH, sodium, chloride, and potassium. AUCs were calculated using a noncompartmental analysis and the linear trapezoidal/linear interpolation method. Urine PD measures included concentrations of aldosterone, cortisol (free and total), tetrahydroaldosterone, sodium, chloride, potassium, creatinine, and phosphorus. Other PD measures were seated, orthostatic, and positional changes in vital signs, as well as changes in body weight and BMI. Safety assessments involved adverse events, physical examinations, ECGs, orthostatic vital signs, and clinical laboratory evaluations.

[2] = Urine pharmacokinetics (fraction of dose excreted renally)
Procedure: (§1) Plasma and urine samples were analyzed to measure concentrations of baxdrostat and its primary metabolite (CIN-107-M), aldosterone and its precursors, cortisol and its precursor, and ACTH using a validated liquid chromatography tandem mass spectrometry method (LC-MS/MS). The quantifiable ranges for both baxdrostat and its metabolite CIN-107-M in plasma and urine were 0.05 to 50 ng/mL (low range) and 5 to 2500 ng/mL (high range), using baxdrostat-d5 and CIN-107-M-d3, respectively, as the internal standards. Plasma samples were extracted by protein precipitation with methanol, followed by analysis by LC-MS/MS with electrospray ionization in positive mode and multiple reaction monitoring. All scheduled study-related laboratory tests were performed by Medpace Reference Laboratories (Cincinnati, OH, USA), Medpace Bioanalytical Laboratories (Cincinnati, OH, USA), Mercy Health—West Hospital Laboratory (Cincinnati, OH, USA), or Laboratory Corporation of America (Dublin, OH, USA).
The cumulative amount of drug excreted in urine on day 1 (Ae,D1) and day 10 (Ae,D10), fraction of dose excreted renally on day 1 (Fe,D1) and day 10 (Fe,D10), and renal clearance on day 1 (CLR,D1) and day 10 (CLR,D10) composed single-dose urine PK parameters.

[3] = Plasma pharmacokinetics of baxdrostat and CIN-107-M, multiple ascending dose phase 1 study; conditions: for RAUC (accumulation ratio based on AUC) / RCmax (accumulation ratio based on Cmax): day 10 vs day 1, mean ± SD; for Cmax / Tmax / Vd/F / half-life: human, plasma, po; for Vd/F: read-out: Vss/F
Procedure: Subjects were randomized in a 3:1 ratio to baxdrostat or placebo once daily for 10 days as follows: • Cohort 1: 2.5 mg baxdrostat or matching placebo on a low-salt diet, 9 subjects receiving baxdrostat and 3 subjects receiving placebo • Cohort 2: 5.0 mg baxdrostat or matching placebo on a low-salt diet, 9 subjects receiving baxdrostat and 3 subjects receiving placebo • Cohort 3: 1.5 mg baxdrostat or matching placebo on a normal-salt diet, 9 subjects receiving baxdrostat and 3 subjects receiving placebo • Cohort 4: 2.5 mg baxdrostat or matching placebo on a normal-salt diet, 6 subjects receiving baxdrostat and 2 subjects receiving placebo • Cohort 5: 0.5 mg baxdrostat or matching placebo on a normal-salt diet, 9 subjects receiving baxdrostat and 3 subjects receiving placebo.
The study drug was a 2 mg/mL baxdrostat oral solution and matching oral placebo solution. Subjects received a single dose of oral solution of baxdrostat or placebo on the mornings of days 1 through 10 at 8:00 a.m. (± 2 h). On days 1 and 10, the dose was given following an overnight fast (of at least 8 h), and subjects remained fasted for at least 4 h after dosing on these days. On all other days, subjects fasted for a minimum of 2 h before and 2 h after dosing.
as §1
Blood samples were collected prior to and after dosing on days 1 and 10 for measurement of plasma baxdrostat and CIN-107-M concentrations to characterize single-dose and steady-state PK. Pharmacokinetic parameters were calculated by standard noncompartmental methods using Phoenix WinNonlin™ (Certara, Inc., Princeton, NJ) and verified with SAS (SAS Institute, Inc., Cary, NC) software. […] Steady-state plasma PK parameters consisted of accumulation ratio based on Cmax (RCmax), accumulation ratio based on AUC (RAUC), apparent first-order terminal elimination rate constant (λz), terminal phase elimination half-life (t1/2), apparent plasma clearance (CLss/F), and apparent volume of distribution (Vss/F).

plasma cortisol = test: Plasma and urine cortisol and 11-deoxycortisol (pharmacodynamics, with ACTH challenge in low-salt cohorts)
Procedure: Cohorts 1 and 2 also underwent an ACTH (Cortrosyn^TM) challenge at baseline (day −1), 1 h after the first dose of study drug on day 1, and 1 h after the final dose of study drug on day 10. This was done to increase aldosterone and cortisol levels to more thoroughly evaluate the specificity of baxdrostat for targeting aldosterone synthase. The ACTH challenge consisted of an intravenous injection of 0.25 mg Cortrosyn^TM administered over 2 min after an overnight fast.
as §1, with “All scheduled study-related laboratory tests were performed by Medpace Reference Laboratories (Cincinnati, OH, USA), Medpace Bioanalytical Laboratories (Cincinnati, OH, USA), Mercy Health—West Hospital Laboratory (Cincinnati, OH, USA), or Laboratory Corporation of America (Dublin, OH, USA).” left out
Plasma PD measures included concentrations of aldosterone, 18-hydroxycorticosterone, corticosterone, 11-deoxycorticosterone, cortisol (free and total), 11-deoxycortisol, ACTH, sodium, chloride, and potassium. AUCs were calculated using a noncompartmental analysis and the linear trapezoidal/linear interpolation method. […]
Subjects who received placebo were pooled into 2 treatment groups: placebo with low-salt diet and placebo with normal-salt diet. Descriptive statistics were calculated for PK, PD, and safety measures. […] The results of the exploratory dose proportionality power model were assessed using the Smith criteria (0.9031, 1.0969) and the less stringent Hummel criteria (0.6990, 1.3010).

[4] = 0.5-5.0 mg once daily for 10 days
[5] = 0.5 mg oral once daily, normal-salt diet, day 10, mean ± SD
[6] = 0.5 mg oral once daily, normal-salt diet
[7] = 1.5 mg oral once daily, normal-salt diet, day 10, mean ± SD
[8] = 1.5 mg oral once daily, normal-salt diet
[9] = 2.5 mg oral once daily, low-salt diet, day 10, mean ± SD
[10] = 2.5 mg oral once daily, low-salt diet
[11] = 2.5 mg oral once daily, normal-salt diet, day 10, mean ± SD, n=5
[12] = 2.5 mg oral once daily, normal-salt diet, n=5
[13] = 5.0 mg oral once daily, low-salt diet, day 10, mean ± SD
[14] = 5.0 mg oral once daily, low-salt diet
[15] = also with ACTH challenge in low-salt diet groups

For `CCC(=O)N[C@@H]1CCCc2c(-c3ccc4c(c3)CCC(=O)N4C)cncc21` [baxdrostat], the “change in plasma potassium levels” value [1, 4] was “increases”, the “change in plasma sodium levels” value [1, 4] was “mild dose-dependent decreases” and the “reduction in glomerular filtration rate” value ([1]; once daily for 10 days) was under 15%. For the same compound, the “baxdrostat dose recovered unchanged in the urine” value ([2]; day 1) was “Approximately 7%”, the “baxdrostat dose recovered unchanged in the urine” value ([2]; steady state (day 10)) was ~ 32% and the AUC0-24hr ([3]; 0.5 mg oral once daily, normal-salt diet, day 1, mean ± SD) was 79.47 ± 17.34 h‧ng/mL. The AUC0-tau [3, 5] was 155.19 ± 35.70 h‧ng/mL, the CLss/F [3, 5] was 3.42 ± 1.01 L/h and the “RAUC (accumulation ratio based on AUC)” value [3, 6] was 1.96 ± 0.27. For the same compound, the “RCmax (accumulation ratio based on Cmax)” value [3, 6] was 1.83 ± 0.26, the AUC0-24hr ([3]; 1.5 mg oral once daily, normal-salt diet, day 1, mean ± SD) was 205.31 ± 36.74 h‧ng/mL and the AUC0-tau [3, 7] was 479.67 ± 138.21 h‧ng/mL. The CLss/F [3, 7] was 3.35 ± 0.92 L/h, the “RAUC (accumulation ratio based on AUC)” value [3, 8] was 2.31 ± 0.32 and the “RCmax (accumulation ratio based on Cmax)” value [3, 8] was 2.13 ± 0.24. For the same compound, the AUC0-24hr ([3]; 2.5 mg oral once daily, low-salt diet, day 1, mean ± SD) was 365.79 ± 65.51 h‧ng/mL, the AUC0-tau [3, 9] was 782.99 ± 143.02 h‧ng/mL and the CLss/F [3, 9] was 3.28 ± 0.53 L/h. The “RAUC (accumulation ratio based on AUC)” value [3, 10] was 2.15 ± 0.16, the “RCmax (accumulation ratio based on Cmax)” value [3, 10] was 1.97 ± 0.30 and the AUC0-24hr ([3]; 2.5 mg oral once daily, normal-salt diet, day 1, mean ± SD) was 343.98 ± 92.44 h‧ng/mL. For the same compound, the AUC0-tau [3, 11] was 676.51 ± 343.78 h‧ng/mL, the CLss/F [3, 11] was 4.32 ± 1.59 L/h and the “RAUC (accumulation ratio based on AUC)” value [3, 12] was 1.99 ± 0.45. The “RCmax (accumulation ratio based on Cmax)” value [3, 12] was 1.71 ± 0.58, the AUC0-24hr ([3]; 5.0 mg oral once daily, low-salt diet, day 1, mean ± SD) was 657.85 ± 137.40 h‧ng/mL and the AUC0-tau [3, 13] was 1659.41 ± 440.51 h‧ng/mL. The CLss/F [3, 13] was 3.21 ± 0.84 L/h, the “RAUC (accumulation ratio based on AUC)” value [3, 14] was 2.51 ± 0.26 and the “RCmax (accumulation ratio based on Cmax)” value [3, 14] was 2.42 ± 0.33. The “dose proportionality of Cmax and AUC (power model, Hummel criteria)” value ([3]; day 1 (Cmax, AUC0-24 h) and day 10 (Cmax, AUC0-tau, AUC0-t)) was “proportional increase”, the Cmax ([3]; 0.5 mg, 0.5 mg oral once daily, normal-salt diet, day 1, mean ± SD, n=9, read-out: Cmax,D1) was 0.00536 ± 0.00125 µg/mL and the Tmax ([3]; 0.5 mg, 0.5 mg oral once daily, normal-salt diet, day 1, read-out: Tmax,D1, median (min, max)) was 2 h. It also gave a Cmax ([3]; 0.5 mg, 0.5 mg oral once daily, normal-salt diet, day 10, mean ± SD, read-out: Cmax,D10) of 0.00972 ± 0.00227 µg/mL, a Vd/F ([3]; 0.5 mg, 0.5 mg oral once daily, normal-salt diet, day 10, mean ± SD) of 152 ± 44.5 L and a half-life ([3]; 0.5 mg, 0.5 mg oral once daily, normal-salt diet, day 10, mean ± SD, read-out: t1/2 (converted)) of 31.2 ± 5.8 h. The Tmax ([3]; 0.5 mg, 0.5 mg oral once daily, normal-salt diet, day 10, read-out: Tmax,D10, median (min, max)) was 2 h, the Cmax ([3]; 1.5 mg, 1.5 mg oral once daily, normal-salt diet, day 1, mean ± SD, n=9, read-out: Cmax,D1) was 0.014 ± 0.00224 µg/mL and the Tmax ([3]; 1.5 mg, 1.5 mg oral once daily, normal-salt diet, day 1, read-out: Tmax,D1, median (min, max)) was 2.5 h. It also gave a Cmax ([3]; 1.5 mg, 1.5 mg oral once daily, normal-salt diet, day 10, mean ± SD, read-out: Cmax,D10) of 0.0299 ± 0.0061 µg/mL, a Vd/F ([3]; 1.5 mg, 1.5 mg oral once daily, normal-salt diet, day 10, mean ± SD) of 137 ± 15.8 L and a half-life ([3]; 1.5 mg, 1.5 mg oral once daily, normal-salt diet, day 10, mean ± SD, read-out: t1/2 (converted)) of 29.9 ± 7.71 h. It also gave a Tmax ([3]; 1.5 mg, 1.5 mg oral once daily, normal-salt diet, day 10, read-out: Tmax,D10, median (min, max)) of 2.5 h, a Cmax ([3]; 2.5 mg, 2.5 mg oral once daily, low-salt diet, day 1, mean ± SD, n=9, read-out: Cmax,D1) of 0.0281 ± 0.0059 µg/mL and a Tmax ([3]; 2.5 mg, 2.5 mg oral once daily, low-salt diet, day 1, read-out: Tmax,D1, median (min, max)) of 3 h. For the same compound, the Cmax ([3]; 2.5 mg, 2.5 mg oral once daily, low-salt diet, day 10, mean ± SD, read-out: Cmax,D10) was 0.054 ± 0.00756 µg/mL, the Vd/F ([3]; 2.5 mg, 2.5 mg oral once daily, low-salt diet, day 10, mean ± SD) was 135 ± 36.7 L and the half-life ([3]; 2.5 mg, 2.5 mg oral once daily, low-salt diet, day 10, mean ± SD, read-out: t1/2 (converted)) was 28.4 ± 4.75 h. It also gave a Tmax ([3]; 2.5 mg, 2.5 mg oral once daily, low-salt diet, day 10, read-out: Tmax,D10, median (min, max)) of 2 h, a Cmax ([3]; 2.5 mg, 2.5 mg oral once daily, normal-salt diet, day 1, mean ± SD, n=6, read-out: Cmax,D1) of 0.0262 ± 0.00476 µg/mL and a Tmax ([3]; 2.5 mg, 2.5 mg oral once daily, normal-salt diet, day 1, read-out: Tmax,D1, median (min, max)) of 3 h. For the same compound, the Cmax ([3]; 2.5 mg, 2.5 mg oral once daily, normal-salt diet, day 10, mean ± SD, n=5, read-out: Cmax,D10) was 0.0439 ± 0.0187 µg/mL, the Vd/F ([3]; 2.5 mg, 2.5 mg oral once daily, normal-salt diet, day 10, mean ± SD, n=5) was 150 ± 42.4 L and the half-life ([3]; 2.5 mg, 2.5 mg oral once daily, normal-salt diet, day 10, mean ± SD, n=5, read-out: t1/2 (converted)) was 25.6 ± 5.95 h. The Tmax ([3]; 2.5 mg, 2.5 mg oral once daily, normal-salt diet, day 10, n=5, read-out: Tmax,D10, median (min, max)) was 3 h, the Cmax ([3]; 5 mg, 5.0 mg oral once daily, low-salt diet, day 1, mean ± SD, n=9, read-out: Cmax,D1) was 0.0473 ± 0.0123 µg/mL and the Tmax ([3]; 5 mg, 5.0 mg oral once daily, low-salt diet, day 1, read-out: Tmax,D1, median (min, max)) was 3.02 h. The Cmax ([3]; 5 mg, 5.0 mg oral once daily, low-salt diet, day 10, mean ± SD, read-out: Cmax,D10) was 0.113 ± 0.0259 µg/mL, the Vd/F ([3]; 5 mg, 5.0 mg oral once daily, low-salt diet, day 10, mean ± SD) was 134 ± 42 L and the half-life ([3]; 5 mg, 5.0 mg oral once daily, low-salt diet, day 10, mean ± SD, read-out: t1/2 (converted)) was 29.4 ± 6.47 h. For the same compound, the Tmax ([3]; 5 mg, 5.0 mg oral once daily, low-salt diet, day 10, read-out: Tmax,D10, median (min, max)) was 3 h, the Tmax ([3]; across doses 0.5-5.0 mg oral once daily, read-out: median Tmax (time to peak plasma concentration after dosing)) was at most 4 h and the half-life ([3]; range across doses 0.5-5.0 mg oral once daily for 10 days, read-out: mean t1/2) was 26 to 31 h. The “effect on urine free cortisol” value (plasma cortisol; 24 h urine collections) was “no meaningful effect”, the “effect on plasma 11-deoxycortisol” value (plasma cortisol; [15]) was “no meaningful effect” and the “effect on plasma cortisol (total or free)” value (plasma cortisol; [15]) was “no meaningful impact; also recorded: no meaningful effect”.
